Here are results for 18 compounds from patent publication US8791148B2, “Substituted benzimidazolone derivatives, medicaments comprising them and their use” (AbbVie Deutschland GmbH & Co. KG, priority 2006, dated 2014).

Bounds are passed on as bounds.

The test has as its target T1, human vasopressin V1b receptor (Homo sapiens, UniProt P47901).
T1 construct: expressed in transfected cells; host or cells: CHO-K1 (cell line hV1b-3H2_CHO), membrane preparation
T1 sequence (P47901 1-424): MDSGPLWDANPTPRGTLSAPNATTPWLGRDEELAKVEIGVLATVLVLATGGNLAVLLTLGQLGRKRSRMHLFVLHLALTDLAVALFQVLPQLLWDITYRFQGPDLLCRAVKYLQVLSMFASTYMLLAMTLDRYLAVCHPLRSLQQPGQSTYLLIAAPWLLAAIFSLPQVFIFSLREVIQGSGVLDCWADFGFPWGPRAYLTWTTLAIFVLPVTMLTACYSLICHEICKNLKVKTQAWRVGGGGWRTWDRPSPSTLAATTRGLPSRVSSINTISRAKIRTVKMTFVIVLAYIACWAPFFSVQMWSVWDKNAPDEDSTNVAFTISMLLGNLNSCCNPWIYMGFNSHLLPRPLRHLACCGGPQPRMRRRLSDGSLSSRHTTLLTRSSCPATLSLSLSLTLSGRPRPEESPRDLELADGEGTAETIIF
As to the kind of experiment: Vasopressin V1b receptor binding assay. The following applies: membranes from CHO-K1 cells with stably expressed human V1b receptors; displacement of 1.5 nM 3H-AVP; read-out: V1b receptor affinity (affinity constant Ki). In a few lines: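 Membranes expressing human V1b receptor were incubated with radioligand and test compound (2% DMSO final) in 50 mM Tris, 10 mM MgCl2, 0.1% BSA, pH 7.4, for 60 min at room temperature, in triplicate. 1 uM AVP defined nonspecific binding. Bound ligand was separated by filtration and counted by scintillation; Ki came from nonlinear regression.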
For the compound `COc1ccc(S(=O)(=O)n2c(=O)n(C(C(=O)N3CCN(c4ccncc4)CC3)c3ccccc3OC)c3cc(Cl)ccc32)cc1` (stereo not drawn) [Example 6, 5-Chloro-1-(4-methoxybenzenesulfonyl)-3-[1-(2-methoxyphenyl)-2-oxo-2-(4-pyridin-4-ylpiperazin-1-yl)ethyl]-1,3-dihydrobenzimidazol-2-one], the inhibition constant Ki was 100 to 500 nM. Turning to `COc1ccc(S(=O)(=O)n2c(=O)n(C(C(=O)N3CC[C@H](NC4CCN(C)CC4)C3)c3ccccc3)c3cc(C#N)ccc32)cc1` (stereo partly drawn) [Example 207, 1-(4-Methoxybenzenesulfonyl)-3-{2-[(S)-3-(1-methylpiperidin-4-ylamino)-pyrrolidin-1-yl]-2-oxo-1-phenylethyl}-2-oxo-2,3-dihydro-1H-benzimidazole-5-carbonitrile], the Ki is less than 100 nM. The result for `COc1ccc(S(=O)(=O)n2c(=O)n(CC(=O)N3CCN(c4ccncc4)CC3)c3cc(Cl)ccc32)cc1` [Example 24, 5-Chloro-1-(4-methoxybenzenesulfonyl)-3-[2-oxo-2-(4-pyridin-4-ylpiperazin-1-yl)-ethyl]-1,3-dihydrobenzimidazol-2-one] reads 100 to 500 nM; that for `COc1ccc(S(=O)(=O)n2c(=O)n(C(C(=O)N3CCN(C4CCN(C)CC4)CC3)c3ccccc3)c3ccccc32)c(OC)c1` (stereo not drawn) [Example 67, 1-(2,4-Dimethoxybenzenesulfonyl)-3-{2-[4-(1-methylpiperidin-4-yl)piperazin-1-yl]-2-oxo-1-phenylethyl}-1,3-dihydrobenzimidazol-2-one], 500 to 10000 nM; that for `CN1CCC(N2CCN(C(=O)C(c3ccccc3)n3c(=O)n(S(=O)(=O)c4cccc5cccnc45)c4cc(Cl)c(Cl)cc43)CC2)CC1` (stereo not drawn) [Example 35, 5,6-Dichloro-1-{2-[4-(1-methylpiperidin-4-yl)piperazin-1-yl]-2-oxo-1-phenylethyl}-3-(quinoline-8-sulfonyl)-1,3-dihydrobenzimidazol-2-one], 500 to 10000 nM. The result for `COc1ccc(S(=O)(=O)n2c(=O)n(C(C(=O)N3CCC(NC4CCN(C)CC4)CC3)c3ccccc3)c3cc(C#N)ccc32)cc1` (stereo not drawn) [Example 206, 1-(4-Methoxybenzenesulfonyl)-3-{2-[4-(1-methylpiperidin-4-ylamino)piperidin-1-yl]-2-oxo-1-phenylethyl}-2-oxo-2,3-dihydro-1H-benzimidazole-5-carbonitrile] reads less than 100 nM. For `COc1ccc(S(=O)(=O)n2c(=O)n(C(C(=O)N3CCN(C)CC3)c3ccccc3)c3cc(Cl)ccc32)cc1` (stereo not drawn) [Example 98, 5-Chloro-1-(4-methoxybenzenesulfonyl)-3-[2-(4-methylpiperazin-1-yl)-2-oxo-1-phenylethyl]-1,3-dihydrobenzimidazol-2-one], the Ki is 500 to 10000 nM. To `CCCOCCNC(=O)C(c1ccccc1)n1c(=O)n(S(=O)(=O)c2ccc(OC)cc2)c2ccc(Cl)cc21` (stereo not drawn) [Example 122, 2-[6-Chloro-3-(4-methoxybenzenesulfonyl)-2-oxo-2,3-dihydrobenzimidazol-1-yl]-2-phenyl-N-(2-propoxyethyl)acetamide] belongs 500 to 10000 nM. Turning to `COc1cccc(C(C(=O)N2CCN(C3CCN(C)CC3)CC2)n2c(=O)n(S(=O)(=O)c3ccc(C#N)cc3)c3ccc(Cl)cc32)c1` (stereo not drawn) [Example 22, 4-(5-Chloro-3-{1-(3-methoxyphenyl)-2-[4-(1-methylpiperidin-4-yl)piperazin-1-yl]-2-oxoethyl}-2-oxo-2,3-dihydrobenzimidazol-1-sulfonyl)benzonitrile], the Ki fell in the range of 100 to 500 nM. The result for `COc1ccc(S(=O)(=O)n2c(=O)n(C(C(=O)N3CC[C@@H](N4CCNCC4)C3)c3ccccc3)c3cc(C#N)ccc32)cc1` (stereo partly drawn) [Example 151, 1-(4-Methoxybenzenesulfonyl)-2-oxo-3-[2-oxo-1-phenyl-2-((R)-3-piperazin-1-ylpyrrolidin-1-yl)ethyl]-2,3-dihydro-1H-benzimidazole-5-carbonitrile] reads less than 100 nM; that for `COc1ccc(S(=O)(=O)n2c(=O)n(C(C(=O)NCc3ccccn3)c3ccccc3)c3cc(Cl)ccc32)cc1` (stereo not drawn) [Example 111, 2-[6-Chloro-3-(4-methoxybenzenesulfonyl)-2-oxo-2,3-dihydrobenzimidazol-1-yl]-2-phenyl-N-pyridin-2-ylmethylacetamide], 500 to 10000 nM; that for `CCCN1CCN([C@H]2CCN(C(=O)C(c3ccccc3)n3c(=O)n(S(=O)(=O)c4ccsc4)c4ccc(C#N)cc43)C2)CC1` (stereo partly drawn) [Example 203, 2-oxo-3-{2-oxo-1-phenyl-2-[(S)-3-(4-propylpiperazin-1-yl)pyrrolidin-1-yl]-ethyl}-1-(thiophene-3-sulfonyl)-2,3-dihydro-1H-benzimidazole-5-carbonitrile], less than 100 nM. To `CCCN1CCN([C@H]2CCN(C(=O)C(c3ccccc3)n3c(=O)n(S(=O)(=O)c4ccc(OCC(F)(F)F)cc4)c4ccc(C#N)cc43)C2)CC1` (stereo partly drawn) [Example 234, 2-oxo-3-{2-oxo-1-phenyl-2-[(S)-3-(4-propyl-piperazin-1-yl)-pyrrolidin-1-yl]-ethyl}1-[4-(2,2,2-trifluoro-ethoxy)-benzenesulfonyl]-2,3-dihydro-1H-benzoimidazole-5-carbonitrile] belongs 100 to 500 nM; to `COc1ccc(S(=O)(=O)n2c(=O)n(C(C(=O)N3CCN(c4ccncc4)CC3)c3ccccc3)c3ccc(Cl)cc32)c(OC)c1` (stereo not drawn) [Example 66, 5-Chloro-3-(2,4-dimethoxybenzenesulfonyl)-1-[2-oxo-1-phenyl-2-(4-pyridin-4-ylpiperazin-1-yl)ethyl]-1,3-dihydrobenzimidazol-2-one], 500 to 10000 nM.

Consider `COc1ccc(S(=O)(=O)n2c(=O)n(C(C(=O)N3CC[C@H](CN4CCN(C(C)C)CC4)C3)c3ccccc3)c3cc(C#N)ccc32)cc1` (stereo partly drawn) [Example 238, 3-{2-[(R)-3-(4-Isopropyl-piperazin-1-ylmethyl)-pyrrolidin-1-yl]-2-oxo-1-phenylethyl}-1-(4-methoxy-benzenesulfonyl)-2-oxo-2,3-dihydro-1H-benzoimidazole-5-carbonitrile; compound with trifluoroacetic acid], for which the Ki is less than 100 nM. The result for `COc1ccc(S(=O)(=O)n2c(=O)n(C(C(=O)N3CC[C@H](CN(C)C4CCN(C)CC4)C3)c3ccccc3)c3cc(C#N)ccc32)cc1` (stereo partly drawn) [Example 256, 1-(4-Methoxy-benzenesulfonyl)-3-[2-((R)-3-{[methyl-(1-methyl-piperidin-4-yl)-amino]-methyl}-pyrrolidin-1-yl)-2-oxo-1-phenyl-ethyl]-2-oxo-2,3-dihydro-1H-benzoimidazole-5-carbonitrile; compound with trifluoroacetic acid] reads less than 100 nM. Turning to `COc1ccc(S(=O)(=O)n2c(=O)n(C(C(=O)N(C)C)c3ccccc3)c3cc(Cl)ccc32)cc1` (stereo not drawn) [Example 97, 2-[6-Chloro-3-(4-methoxybenzenesulfonyl)-2-oxo-2,3-dihydrobenzimidazol-1-yl]-N,N-dimethyl-2-phenylacetamide], the Ki fell in the range of 500 to 10000 nM. To `CCCN1CCC(N[C@H]2CCN(C(=O)C(c3ccccc3)n3c(=O)n(S(=O)(=O)c4ccc(OC)cc4)c4ccc(C#N)cc43)C2)CC1` (stereo partly drawn) [Example 210, 1-(4-Methoxybenzenesulfonyl)-2-oxo-3-{2-oxo-1-phenyl-2-[(S)-3-(1-propylpiperidin-4-ylamino)pyrrolidin-1-yl]ethyl}-2,3-dihydro-1H-benzimidazole-5-carbonitrile] belongs less than 100 nM.

One may read the Ki as a measure of affinity in units of concentration, obtained from inhibition or displacement.
